Values of other authors, collected in patent US20090182041A1, “CONTROL OF CANCER WITH ANNONACEOUS EXTRACTS” (NATURE'S SUNSHINE PRODUCTS, INC., priority 2002, published 2009).

Tests used:
[1] = system: mitochondrial complex I (NADH: ubiquinone oxidoreductase); conditions: substantially purified form
[2] = system: NADH oxidase found in the plasma membranes of tumor cells; conditions: substantially purified form

Compound	inhibition of complex I in the electron transport system in mitochondria [1]	inhibition of NADH oxidase in the plasma membranes of tumor cells [2]
bullatacin	most powerful inhibitors known	inhibit
CCCCCCCCCC[C@@H](O)[C@H]1CC[C@@H]([C@H]2CC[C@H]([C@H](O)CCCCCCCCCC[C@@H](O)CC3=C[C@H](C)OC3=O)O2)O1 [trilobacin]	most powerful inhibitors known	inhibit
asimicin	most powerful inhibitors known	inhibit
